# Experimental data: patent US20250002526A1, “PHARMACEUTICAL COMPOSITION HAVING ANTI-CANCER IMMUNOSTIMULATING EFFECT AND/OR IMMUNE CHECKPOINT INHIBITION POTENTIATING EFFECT” (KYUSHU UNIVERSITY, NATIONAL UNIVERSITY CORPORATION, priority 2021, published 2025)
# “Also recorded” adds a separate entry of the source.
# What was measured:
# [1] = target: T1, recombinant human SULT2B1b protein (Homo sapiens, UniProt O00204); assay: SULT assay (in vitro SULT2B1b enzymatic activity measurement); assay type: biochemical
# T1 sequence (O00204 1-365): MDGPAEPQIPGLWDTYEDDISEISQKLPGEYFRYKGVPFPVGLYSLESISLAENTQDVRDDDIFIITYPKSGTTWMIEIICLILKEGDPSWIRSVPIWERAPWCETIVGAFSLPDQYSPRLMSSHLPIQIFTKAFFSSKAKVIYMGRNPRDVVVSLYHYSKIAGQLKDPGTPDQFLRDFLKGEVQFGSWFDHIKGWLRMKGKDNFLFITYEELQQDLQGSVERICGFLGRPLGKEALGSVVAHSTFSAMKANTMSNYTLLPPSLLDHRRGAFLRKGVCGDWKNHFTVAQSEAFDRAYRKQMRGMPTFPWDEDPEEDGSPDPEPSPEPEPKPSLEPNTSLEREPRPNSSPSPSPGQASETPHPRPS
# Experimental: For screening for a SULT2B1b inhibitor, enzymatic activity measurement for SULT2B1b was carried out by a method described in a previous report (NPL 2) with slight modifications.
# The reaction solution (50 μl) was composed of 1 to 5 μg of recombinant human SULT2B1b protein, 10 μM [^3H]cholesterol (approximately 4,000 dpm/pmol), 10 mM Tris-HCl (pH 7.5, containing 5 mM MgCl2) containing 0.1 mM 3′-phosphoadenosine 5′-phosphosulfate (PAPS), 0.2 mM 2-hydroxypropyl-β-cyclodextrin, and 5% (v/v) ethanol. Recombinant human SULT2B1b protein was pre-incubated with 1 μl of a test compound (final concentration: 40 or 200 μM) or DMSO (control) at room temperature for 15 minutes, 2 mM PAPS (2.5 μl) was then added to initiate reaction, the resultant was reacted at 37° C. for 15 minutes, and 0.8 ml of ethanol was added to terminate the reaction.
# The solution after the reaction was subjected to thin-layer chromatography (TLC) for separation, and then to a liquid scintillation counter to quantify radiolabeled CS.
# From the percentage to the amount ([…]) of radiolabeled CS generated through reaction in the absence of the test compound (DMSO) (control), the SULT2B1b activity (% activity) of SULT2B1b protein in the presence of the test compound was evaluated, and the effect of the test compound to inhibit SULT2B1b-mediated CS production (CS production inhibitory effect) was evaluated.
# In enzyme assay, SULT assay was performed with use of cholenoic acid as a compound to be tested at different cholesterol and PAPS concentrations (wherein 0.5 to 1 μg of recombinant human SULT2B1b protein was used, the preincubation time and reaction time were each 10 minutes), and the results were fitted to the Michaelis-Menten equation by using Prism 9 (GraphPad Software, Inc.) to perform enzyme kinetic analysis for the inhibition by cholenoic acid.
# SULT assay was performed for the compounds as test compounds by the method described in (14) of “II. Experimental procedure” in Experiment Example 1 to evaluate the SULT2B1b inhibitory effects of the compounds.
# E0771-SULT-OVA cells = assay: In vivo tumor growth of E0771-SULT-OVA cells with OTII T cell transfer; parameters: species or system mouse; settings: activated OTII T cells i.v. day 9, cholenoic acid oral days 12, 13 and 14
# Experimental: In T cell transfer experiment, activated OTII CD4^+ T cells (2×10^6) and OTI CD8^+ T cells (5×10^5) were intravenously injected into tumor-bearing mice (see experimental results (4)).
# Cholenoic acid was suspended in 0.5% (w/v) methylcellulose 400 solution (FUJIFILM Wako Pure Chemical Corporation) at a proportion of 50 mg/ml, and a 200-μl portion (10 mg) of the suspension was orally administered to mice (see experimental results (6)). To examine the effect on the tumor infiltration of OTII cells or OTI T cells, 5 mg of cholenoic acid was orally administered three times at intervals of 6 hours in 2 days before the assay.
# CD4^+ T cells or CD8^+ T cells were magnetically selected from the spleen and peripheral lymph nodes of OTII and OTI TCR transgenic mice with Dynabeads mouse CD4 (Invitrogen), and then treated with DETACHaBEAD™ mouse CD4 (Invitrogen) or separated with a CD8a^+ T Cell Isolation Kit (Miltenyi Biotec). […]
# The growth of tumors was monitored by measuring the vertical diameters of each tumor with a caliper twice a week and calculating the tumor volumes from the following expression.
# E0771-SULT cells = assay: Trans-cancer migration assay (CCL21-induced T-cell migration); assay type: cell-based, mouse; settings: E0771-SULT cells pretreated with cholenoic acid (5 μM)
# Description: FIG. 10 is a series of diagrams showing experimental results (6) in Experiment Example 1 (identification of cholenoic acid as a SULT2B1b inhibitor that promotes anti-tumor immunity). […] The data were acquired from two independent experiments, and expressed as mean±SD. * P<0.05; ** P<0.01 (one-way ANOVA followed by Dunnett's post-hoc test). The level of CCL21-induced T-cell migration in E0771-MOCK cells (CCL21+, SULT−) was used as a control for comparison. FIGS. 10B and 10C show results of enzyme kinetic analysis for SULT2B1b inhibition by cholenoic acid (3-OH-5-Chln). SULT2B1b protein (0.3 or 0.6 μM) was preincubated with cholenoic acid (20 or 40 μM) or a vehicle (2% DMSO), and reacted with cholesterol at different concentrations in the presence of 100 μM PAPS (FIG. 10B) or reacted with PAPS at different concentrations in the presence of 10 μM cholesterol (FIG. 10C). The data were fitted to the Michaelis-Menten equation (the left figures in FIGS. 10B and 10C), and their inhibition modes were analyzed with Lineweaver-Burk plots (right figures).
# In carrying out the migration assay, T cells were loaded on E0771-MOCK cells (expressing only a vector; SULT−) or E0771-SULT cells (SULT+) seeded on Matrigel in an upper chamber.
smiles,measurement,setting,value
"C[C@H](CCC(=O)O)[C@H]1CC[C@H]2[C@@H]3CC=C4C[C@@H](O)CC[C@]4(C)[C@H]3CC[C@]12C [Compound 1, (R)-4-((3S,8S,9S,10R,13R,14S,17R)-3-hydroxy-10,13-dimethyl-2,3,4,7,8,9,10,11,12,13,14,15,16,17-tetradecahydro-1H-cyclopenta[a]phenanthren-17-yl)pentanoic acid]",inhibition mode with respect to PAPS (sulfate donor),"[1]; Michaelis-Menten / Lineweaver-Burk, 10 μM cholesterol",uncompetitively
same,inhibition mode with respect to cholesterol (substrate),"[1]; Michaelis-Menten / Lineweaver-Burk, 100 μM PAPS",non-competitively
same,IC50,"[1]; recombinant human SULT2B1b, read-out: IC50 value (enzyme assay)",24.8 µM
same,activity at 200 µM,"[1]; test compound 200 μM, relative to DMSO control (100%), read-out: in vitro SULT2B1b assay % activity at 200 μM",20.6%
same,growth of E0771-SULT-OVA cells / anti-tumor immunity of OTII T cells,E0771-SULT-OVA cells,recovery of the effect of OTII cell or OTI T cell transplantation; also recorded: the growth of E0771-SULT-OVA cells was suppressed
same,CCL21-induced T-cell migration suppressed by E0771-SULT cells,E0771-SULT cells,suppression effect was not observed; also recorded: recovery
